Earlier results, collected in US9120805B2, “Substituted pyrrolo[1,2-A]pyrazin-1-ones and pyrazolo[1,5-A]pyrazin-4-ones as inhibitors of tankyrase and poly(ADP-ribose)polymerase activity” (Merck Patent GmbH, priority 2012, dated 2015).

Experiments:
DLD-1-cancer cells = conditions: literature (Huang et al., 2009); cited from earlier work
β-catenin = conditions: literature (Huang et al., 2009); by increasing AXIN1 and AXIN2 levels; cited from earlier work

In the case of Oc1nc(-c2ccc(C(F)(F)F)cc2)nc2c1CSCC2 [XAV939], the “growth of DLD-1-cancer cells” value (DLD-1-cancer cells) is listed as “inhibits growth” and the “Wnt-stimulated accumulation of β-catenin” value (β-catenin) is listed as “blocked Wnt-stimulated accumulation of β-catenin”.
